Experimental data as given in patent US20050192261A1, “Methods and reagents for the treatment of immunoinflammatory disorders” (priority 2003, published 2005).
Where “and” joins values, the source holds several entries; their conditions need not be identical. Equal entries are not always repeated. Structures can show the parent of a compound that is named as a salt. Where two headings read alike, the source gives them in different places.

Test system: TNFα secretion in white blood cells from human buffy coat stimulated with phorbol 12-myristate 13-acetate and ionomycin
Experiment: TNFα secretion assay
Method: Drugs were added to the indicated concentration. […] The plate was then washed again with 0.1% Tween 20/PBS. An HRP-luminescent substrate was added to each well, and the light intensity of each well was measured using a plate luminometer.

## C[C@]12C=CC(=O)C=C1CC[C@@H]1[C@@H]2[C@@H](O)C[C@@]2(C)[C@H]1CC[C@]2(O)C(=O)CO [Prednisolone, prednisolone]
Homo sapiens, read-out: % inhibition of TNFα secretion, Prednisolone 0.5 μM, Tripelennamine HCl μM r5-r13: 0,0.31,0.61,1.2,2.4,4.9,9.8,20,39
  inhibition at 0.5 µM: 35%
Homo sapiens, read-out: % inhibition of TNFα secretion, Prednisolone 1 μM, Tripelennamine HCl μM r5-r13: 0,0.31,0.61,1.2,2.4,4.9,9.8,20,39
  inhibition at 1 µM: 40%
Homo sapiens, read-out: inhibition of TNFα secretion, prednisolone 0.5 μM, azatadine maleate r5-r13: 0,0.27,0.54,1.1,2.1,4.3,8.6,17,34 μM
  inhibition at 0.5 µM: 35%
Homo sapiens, read-out: inhibition of TNFα secretion, prednisolone 0.5 μM, bromodiphenhydramine HCl r5-r13: 0,0.21,0.43,0.85,1.7,3.4,6.8,14,27 μM
  inhibition at 0.5 µM: 34%
Homo sapiens, read-out: inhibition of TNFα secretion, prednisolone 0.5 μM, chlorpheniramine maleate r5-r13: 0,0.2,0.4,0.8,1.6,3.2,6.4,13,26 μM
  inhibition at 0.5 µM: 28%
Homo sapiens, read-out: inhibition of TNFα secretion, prednisolone 0.5 μM, clemizole HCl r5-r13: 0,0.22,0.43,0.86,1.7,3.5,6.9,14,28 μM
  inhibition at 0.5 µM: 37%
Homo sapiens, read-out: inhibition of TNFα secretion, prednisolone 0.5 μM, doxylamine succinate r5-r13: 0,0.2,0.4,0.8,1.6,3.2,6.4,13,26 μM
  inhibition at 0.5 µM: 32%
Homo sapiens, read-out: inhibition of TNFα secretion, prednisolone 0.5 μM, fexofenadine HCl r5-r13: 0,0.073,0.15,0.29,0.58,1.2,2.3,4.6,9.3 μM
  inhibition at 0.5 µM: 45%
Homo sapiens, read-out: inhibition of TNFα secretion, prednisolone 0.5 μM, loratadine r5-r13: 0,0.2,0.41,0.82,1.6,3.3,6.5,13,26 μM
  inhibition at 0.5 µM: 29%
Homo sapiens, read-out: inhibition of TNFα secretion, prednisolone 0.5 μM, meclizine HCl r5-r13: 0,0.32,0.63,1.3,2.5,5.1,10,20,41 μM
  inhibition at 0.5 µM: 36%
Homo sapiens, read-out: inhibition of TNFα secretion, prednisolone 0.5 μM, promethazine HCl r5-r13: 0,0.24,0.49,0.97,1.9,3.9,7.8,16,31 μM
  inhibition at 0.5 µM: 32%
Homo sapiens, read-out: inhibition of TNFα secretion, prednisolone 0.5 μM, pyrilamine maleate r5-r13: 0,0.19,0.38,0.76,1.5,3,6.1,12,24 μM
  inhibition at 0.5 µM: 24%
Homo sapiens, read-out: inhibition of TNFα secretion, prednisolone 1 μM, azatadine maleate r5-r13: 0,0.27,0.54,1.1,2.1,4.3,8.6,17,34 μM
  inhibition at 1 µM: 43%
Homo sapiens, read-out: inhibition of TNFα secretion, prednisolone 1 μM, bromodiphenhydramine HCl r5-r13: 0,0.21,0.43,0.85,1.7,3.4,6.8,14,27 μM
  inhibition at 1 µM: 37%
Homo sapiens, read-out: inhibition of TNFα secretion, prednisolone 1 μM, cetrizine HCl r5-r13: 0,0.2,0.4,0.8,1.6,3.2,6.4,13,26 μM
  inhibition at 1 µM: 40%
Homo sapiens, read-out: inhibition of TNFα secretion, prednisolone 1 μM, chlorpheniramine maleate r5-r13: 0,0.2,0.4,0.8,1.6,3.2,6.4,13,26 μM
  inhibition at 1 µM: 39%
Homo sapiens, read-out: inhibition of TNFα secretion, prednisolone 1 μM, clemizole HCl r5-r13: 0,0.22,0.43,0.86,1.7,3.5,6.9,14,28 μM
  inhibition at 1 µM: 40%
Homo sapiens, read-out: inhibition of TNFα secretion, prednisolone 1 μM, cyproheptadine HCl r5-r13: 0,0.24,0.48,0.96,1.9,3.9,7.7,15,31 μM
  inhibition at 1 µM: 39%
Homo sapiens, read-out: inhibition of TNFα secretion, prednisolone 1 μM, doxylamine succinate r5-r13: 0,0.2,0.4,0.8,1.6,3.2,6.4,13,26 μM
  inhibition at 1 µM: 35%
Homo sapiens, read-out: inhibition of TNFα secretion, prednisolone 1 μM, fexofenadine HCl r5-r13: 0,0.073,0.15,0.29,0.58,1.2,2.3,4.6,9.3 μM
  inhibition at 1 µM: 45%
Homo sapiens, read-out: inhibition of TNFα secretion, prednisolone 1 μM, loratadine r5-r13: 0,0.2,0.41,0.82,1.6,3.3,6.5,13,26 μM
  inhibition at 1 µM: 40%
Homo sapiens, read-out: inhibition of TNFα secretion, prednisolone 1 μM, meclizine HCl r5-r13: 0,0.32,0.63,1.3,2.5,5.1,10,20,41 μM
  inhibition at 1 µM: 44%
Homo sapiens, read-out: inhibition of TNFα secretion, prednisolone 1 μM, promethazine HCl r5-r13: 0,0.24,0.49,0.97,1.9,3.9,7.8,16,31 μM
  inhibition at 1 µM: 39%
Homo sapiens, read-out: inhibition of TNFα secretion, prednisolone 1 μM, pyrilamine maleate r5-r13: 0,0.19,0.38,0.76,1.5,3,6.1,12,24 μM
  inhibition at 1 µM: 31%
Homo sapiens, read-out: inhibition of TNFα secretion, prednisolone 1 μM, thiethylperazine maleate r5-r13: 0,0.2,0.39,0.78,1.6,3.1,6.3,13,25 μM
  inhibition at 1 µM: 39%
Homo sapiens, read-out: percent inhibition of TNFα secretion, Prednisolone 0.5 μM, Bromodiphenhydramine HCl μM r5-r13: 0,0.21,0.43,0.85,1.7,3.4,6.8,14,27
  inhibition at 0.5 µM: 34%
Homo sapiens, read-out: percent inhibition of TNFα secretion, Prednisolone 0.5 μM, Clemizole μM r5-r13: 0,0.22,0.43,0.86,1.7,3.5,6.9,14,28
  inhibition at 0.5 µM: 37%
Homo sapiens, read-out: percent inhibition of TNFα secretion, Prednisolone 0.5 μM, Loratadine μM r5-r13: 0,0.2,0.41,0.82,1.6,3.3,6.5,13,26
  inhibition at 0.5 µM: 29%
Homo sapiens, read-out: percent inhibition of TNFα secretion, Prednisolone 0.5 μM, Promethazine HCl μM r5-r13: 0,0.24,0.49,0.97,1.9,3.9,7.8,16,31
  inhibition at 0.5 µM: 32%
Homo sapiens, read-out: percent inhibition of TNFα secretion, Prednisolone 1 μM, Bromodiphenhydramine HCl μM r5-r13: 0,0.21,0.43,0.85,1.7,3.4,6.8,14,27
  inhibition at 1 µM: 37%
Homo sapiens, read-out: percent inhibition of TNFα secretion, Prednisolone 1 μM, Clemizole μM r5-r13: 0,0.22,0.43,0.86,1.7,3.5,6.9,14,28
  inhibition at 1 µM: 40%
Homo sapiens, read-out: percent inhibition of TNFα secretion, Prednisolone 1 μM, Cyproheptadine μM r5-r13: 0,0.24,0.48,0.96,1.9,3.9,7.7,15,31
  inhibition at 1 µM: 39%
Homo sapiens, read-out: percent inhibition of TNFα secretion, Prednisolone 1 μM, Loratadine μM r5-r13: 0,0.2,0.41,0.82,1.6,3.3,6.5,13,26
  inhibition at 1 µM: 40%
Homo sapiens, read-out: percent inhibition of TNFα secretion, Prednisolone 1 μM, Promethazine HCl μM r5-r13: 0,0.24,0.49,0.97,1.9,3.9,7.8,16,31
  inhibition at 1 µM: 39%
Homo sapiens, read-out: percent inhibition of TNFα secretion, Prednisolone 1 μM, Thiethylperazine μM r5-r13: 0,0.2,0.39,0.78,1.6,3.1,6.3,13,25
  inhibition at 1 µM: 39%

## CN(C)CCOC(C)(c1ccccc1)c1ccccn1 (stereo not drawn) [Doxylamine Succinate]
Prednisolone 1 μM, doxylamine succinate r5-r13: 0,0.2,0.4,0.8,1.6,3.2,6.4,13,26 μM
  inhibition of TNFα secretion: 34

## CNCCC(Oc1ccc(C(F)(F)F)cc1)c1ccccc1 (racemic) [Fluoxetine HCl, (±)-N-methyl-3-phenyl-3-[((alpha),(alpha),(alpha)-trifluoro-p-tolyl)oxy]propylamine hydrochloride]
Homo sapiens, read-out: percent inhibition of TNFα secretion, Fluoxetine HCl 0.9 μM, Cyproheptadine HCl: 0/0.24/0.48/0.96/1.9/3.9/7.7/15/31 μM
  inhibition at 0.9 µM: -1.1%
Homo sapiens, read-out: percent inhibition of TNFα secretion, Fluoxetine HCl 14 μM, Cyproheptadine HCl: 0/0.24/0.48/0.96/1.9/3.9/7.7/15/31 μM
  inhibition at 14 µM: 16%
Homo sapiens, read-out: percent inhibition of TNFα secretion, Fluoxetine HCl 29 μM, Cyproheptadine HCl: 0/0.24/0.48/0.96/1.9/3.9/7.7/15/31 μM
  inhibition at 29 µM: 41%
Promethazine HCl 0 μM, Fluoxetine HCl μM r5-r13: 0,0.23,0.45,0.9,1.8,3.6,7.2,14,29, hydrochloride
  percent inhibition of TNFα secretion: 1.71% and −2.67% and 4.37% and 2.89% and −0.34% and −0.46% and −0.103% and 4.12%

## Clc1ccc(Cn2c(CN3CCCC3)nc3ccccc32)cc1 [Clemizole HCl, clemizole]
Homo sapiens, read-out: percent inhibition (dose matrix), Table 96, Clemizole HCl 14 μM, Amoxapine 0-25 μM
  inhibition at 14 µM: -11.9%
Homo sapiens, read-out: percent inhibition (dose matrix), Table 96, Clemizole HCl 28 μM, Amoxapine 0-25 μM
  inhibition at 28 µM: 0.658%
Homo sapiens, read-out: percent inhibition (dose matrix), Table 97, Clemizole HCl 14 μM, Nortriptyline HCl 0-33 μM per row (c1)
  inhibition at 14 µM: 5.46%
Homo sapiens, read-out: percent inhibition (dose matrix), Table 97, Clemizole HCl 28 μM, Nortriptyline HCl 0-33 μM per row (c1)
  inhibition at 28 µM: 19.5%
Homo sapiens, read-out: percent inhibition (dose matrix), Table 98, Clemizole HCl 14 μM, Paroxetine HCl 0-27 μM per row (c1)
  inhibition at 14 µM: 0.085%
Homo sapiens, read-out: percent inhibition (dose matrix), Table 98, Clemizole HCl 28 μM, Paroxetine HCl 0-27 μM per row (c1)
  inhibition at 28 µM: -7.43%
Homo sapiens, read-out: percent inhibition (dose matrix), Table 103, Clemizole HCl 14 μM, Fluoxetine HCl 0-29 μM
  inhibition at 14 µM: 9.15%
Homo sapiens, read-out: percent inhibition (dose matrix), Table 103, Clemizole HCl 28 μM, Fluoxetine HCl 0-29 μM
  inhibition at 28 µM: 9.27%
Homo sapiens, read-out: percent inhibition (dose matrix), Table 107, Clemizole HCl 14 μM, Desipramine HCl 0-32 μM per row (c1)
  inhibition at 14 µM: 3.19%
Homo sapiens, read-out: percent inhibition (dose matrix), Table 107, Clemizole HCl 28 μM, Desipramine HCl 0-32 μM per row (c1)
  inhibition at 28 µM: 14.9%
Homo sapiens, read-out: percent inhibition (dose matrix), Table 108, Clemizole HCl 14 μM, Sertraline HCl 0-32 μM per row (c1)
  inhibition at 14 µM: 4.65%
Homo sapiens, read-out: percent inhibition (dose matrix), Table 108, Clemizole HCl 28 μM, Sertraline HCl 0-32 μM per row (c1)
  inhibition at 28 µM: 16.9%
Homo sapiens, read-out: percent inhibition of TNFα secretion, Clemizole HCl 14 μM, Amoxapine μM r5-r13: 0,0.2,0.4,0.8,1.6,3.2,6.4,13,25
  inhibition at 14 µM: 20%
Homo sapiens, read-out: percent inhibition of TNFα secretion, Clemizole HCl 14 μM, Desipramine HCl: 0/0.25/0.5/1/2/4/8/16/32 μM
  inhibition at 14 µM: 26.4%
Homo sapiens, read-out: percent inhibition of TNFα secretion, Clemizole HCl 14 μM, Fluoxetine HCl μM: 0/0.23/0.45/0.9/1.8/3.6/7.2/14/29
  inhibition at 14 µM: 26.1%
Homo sapiens, read-out: percent inhibition of TNFα secretion, Clemizole HCl 14 μM, Paroxetine HCl μM r5-r13: 0,0.21,0.42,0.83,1.7,3.3,6.7,13,27
  inhibition at 14 µM: 22.4%
Homo sapiens, read-out: percent inhibition of TNFα secretion, Clemizole HCl 14 μM, Sertraline HCl by grid row r5-r13: 0/0.25/0.49/0.99/2/4/7.9/16/32 μM
  inhibition at 14 µM: 24.5%
Homo sapiens, read-out: percent inhibition of TNFα secretion, Clemizole HCl 28 μM, Amoxapine μM r5-r13: 0,0.2,0.4,0.8,1.6,3.2,6.4,13,25
  inhibition at 28 µM: 42.5%
Homo sapiens, read-out: percent inhibition of TNFα secretion, Clemizole HCl 28 μM, Desipramine HCl: 0/0.25/0.5/1/2/4/8/16/32 μM
  inhibition at 28 µM: 41.4%
Homo sapiens, read-out: percent inhibition of TNFα secretion, Clemizole HCl 28 μM, Fluoxetine HCl μM: 0/0.23/0.45/0.9/1.8/3.6/7.2/14/29
  inhibition at 28 µM: 34.1%
Homo sapiens, read-out: percent inhibition of TNFα secretion, Clemizole HCl 28 μM, Paroxetine HCl μM r5-r13: 0,0.21,0.42,0.83,1.7,3.3,6.7,13,27
  inhibition at 28 µM: 42.1%
Homo sapiens, read-out: percent inhibition of TNFα secretion, Clemizole HCl 28 μM, Sertraline HCl by grid row r5-r13: 0/0.25/0.49/0.99/2/4/7.9/16/32 μM
  inhibition at 28 µM: 43.3%
Prednisolone […], clemizole HCl r5-r13: 0,0.22,0.43,0.86,1.7,3.5,6.9,14,28 μM
  inhibition of TNFα secretion: 28
